In the Kinase Knowledgebase extract (Sharma et al. 2016) one finds IC50 data, which are given here for 81 compounds.

In this experiment the target is MAPK14 (human) (UniProt Q16539). Description: Inhibition of MAPK14 Kinase Activity.

Where only a bound is given, the exact number is not on record here.

Sequence of MAPK14 (human) (Q16539 whole entry, looked up): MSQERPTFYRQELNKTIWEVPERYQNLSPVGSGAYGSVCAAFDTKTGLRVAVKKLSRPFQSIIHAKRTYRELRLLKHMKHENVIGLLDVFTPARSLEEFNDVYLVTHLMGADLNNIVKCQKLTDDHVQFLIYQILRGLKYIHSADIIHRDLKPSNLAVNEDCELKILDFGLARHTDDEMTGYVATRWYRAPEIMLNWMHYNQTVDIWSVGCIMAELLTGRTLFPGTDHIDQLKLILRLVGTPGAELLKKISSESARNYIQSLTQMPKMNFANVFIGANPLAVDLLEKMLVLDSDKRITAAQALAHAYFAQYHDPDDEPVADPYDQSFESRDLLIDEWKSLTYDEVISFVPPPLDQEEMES

Take `CC(=O)c1ccc(C(=O)NCc2nc(-c3ccc(F)cc3)c(-c3nc(C(=O)NC(C)C)cs3)o2)cc1`: the IC50 was ≤ 1 µM.

Regarding `CCN(CC)c1ccc(C(=O)N2CCN(Cc3nc(-c4ccc(F)cc4)c(-c4nc(C(=O)NC(C)C)cs4)o3)CC2)cc1`, the IC50 was ≤ 1 µM.

`Cc1nc(-c2ccc(F)cc2)c(-c2nc(C(=O)NCc3ccc(Cl)cc3Cl)cs2)s1`: the IC50 was ≤ 1 µM.

On to `O=C(NCCCO)c1csc(-c2c(-c3ccc(F)cc3)n[nH]c2C2CCNCC2)n1`, for which the half-maximal inhibitory concentration (IC50) was ≤ 1 µM.

In the case of `CC(C)NC(=O)c1csc(-c2oc(CNC(=O)c3ccc(Cl)cc3Cl)nc2-c2ccc(F)cc2)n1`, the 50% inhibitory concentration (IC50) was ≤ 1 µM.

For `Cc1nc(-c2ccc(F)cc2)c(-c2nc(C(=O)NCc3ccc4c(c3)OCO4)cs2)s1`, the IC50 was ≤ 1 µM.

Turning to `C#CCNC(=O)c1csc(-c2c(-c3ccc(F)cc3)n[nH]c2C2CCNCC2)n1`, the IC50 was ≤ 1 µM.

For the compound `CC(C)NC(=O)c1csc(-c2oc(CNCCc3ccc(O)cc3)nc2-c2ccc(F)cc2)n1`, the IC50 was ≤ 1 µM.

Consider `COCCNC(=O)c1csc(-c2c(-c3ccc(F)cc3)n[nH]c2C2CCNCC2)n1`, for which the half-maximal inhibitory concentration (IC50) was ≤ 1 µM.

Consider `CC(C)NC(=O)c1csc(-c2oc(CNC(=O)C=Cc3ccccc3)nc2-c2ccc(F)cc2)n1`, for which the IC50 was ≤ 1 µM.

`CC(C)NC(=O)c1csc(-c2oc(CNC(=O)C(F)(F)F)nc2-c2ccc(F)cc2)n1`: the IC50 is ≤ 1 µM.

For `Cc1nc(-c2ccc(F)cc2)c(-c2nc(C(=O)NCC3CC3)cs2)s1`, the half-maximal inhibitory concentration (IC50) was ≤ 1 µM.

`CC(C)NC(=O)c1csc(-c2oc(CN3CCN(C(=O)C4CCCCC4)CC3)nc2-c2ccc(F)cc2)n1`: the IC50 is ≤ 1 µM.

For `CC(C)NC(=O)c1csc(-c2c(-c3ccc(F)cc3)n[nH]c2C2CCN(C(=O)[C@H](C)O)CC2)n1`, the IC50 was ≤ 1 µM.

For `Cc1onc(-c2ccc(Cl)cc2)c1-c1ccn(C(=O)NCC(C)C)n1`, the IC50 is ≤ 1 µM.

As for `CC(C)NC(=O)c1csc(-c2oc(CN3CCN(C(=O)c4ccc(-c5ccc(O)cc5)cc4)CC3)nc2-c2ccc(F)cc2)n1`, the IC50 was ≤ 1 µM.

Take `CC(C)NC(=O)c1csc(-c2oc(CNC(=O)c3ccc4cccc(O)c4n3)nc2-c2ccc(F)cc2)n1`: the IC50 is ≤ 1 µM.

For `CC(=O)c1ccccc1C(=O)N1CCN(Cc2nc(-c3ccc(F)cc3)c(-c3nc(C(=O)NC(C)C)cs3)o2)CC1`, the 50% inhibitory concentration (IC50) was ≤ 1 µM.

Regarding `CC(C)NC(=O)c1csc(-c2c(-c3ccc(F)cc3)n[nH]c2C2CCN(C(=O)c3cc(O)c(O)c(O)c3)CC2)n1`, the IC50 was ≤ 1 µM.

With `COc1ccc(CCNC(=O)c2csc(-c3sc(C)nc3-c3ccc(F)cc3)n2)cc1`, the IC50 is ≤ 1 µM.

As for `CC(C)NC(=O)c1csc(-c2oc(CNC(=O)C(C)O)nc2-c2ccc(F)cc2)n1` (stereo unspecified), the half-inhibitory concentration (IC50) is ≤ 1 µM.

For `CC(C)NC(=O)c1csc(-c2oc(CN3CCN(C(=O)c4cn(C)cn4)CC3)nc2-c2ccc(F)cc2)n1`, the half-inhibitory concentration (IC50) is ≤ 1 µM.

Turning to `CC(C)NC(=O)c1csc(-c2c(-c3ccc(F)cc3)noc2CNC(=O)C=Cc2ccccc2F)n1`, the half-maximal inhibitory concentration (IC50) is ≤ 1 µM.

For `Cc1nc(-c2ccc(F)cc2)c(-c2nc(C(=O)N[C@H](C)c3ccccc3)cs2)s1`, the half-inhibitory concentration (IC50) was ≤ 1 µM.

For the compound `O=C(NCc1ccccc1F)c1csc(-c2c(-c3ccc(F)cc3)n[nH]c2C2CCNCC2)n1`, the IC50 was ≤ 1 µM.

Regarding `CC(C)NC(=O)c1csc(-c2oc(CN3CCN(C(=O)C(C)(C)C)CC3)nc2-c2ccc(F)cc2)n1`, the concentration for half-maximal inhibition (IC50) is ≤ 1 µM.

As for `C#CCNC(=O)c1csc(-c2c(-c3ccc(F)cc3)ncn2C2CCNCC2)n1`, the IC50 is ≤ 1 µM.

Regarding `CC(C)NC(=O)c1csc(-c2oc(CNC(=O)c3cc(Cl)c(O)c(Cl)c3)nc2-c2ccc(F)cc2)n1`, the concentration for half-maximal inhibition (IC50) is ≤ 1 µM.

Regarding `Cc1ccc(O)c(C(=O)N2CCN(Cc3nc(-c4ccc(F)cc4)c(-c4nc(C(=O)NC(C)C)cs4)o3)CC2)c1`, the IC50 was ≤ 1 µM.

`CC(C)NC(=O)c1csc(-c2oc(CNC(=O)C=Cc3ccccc3O)nc2-c2ccc(F)cc2)n1`: the IC50 is ≤ 1 µM.

On to `CC(=O)NCC(=O)N1CCC(c2[nH]nc(-c3ccc(F)cc3)c2-c2nc(C(=O)NC(C)C)cs2)CC1`, for which the IC50 was ≤ 1 µM.

For the compound `CC(C)NC(=O)c1csc(-c2oc(CN3CCN(C(=O)c4cc(F)c(F)cc4[N+](=O)[O-])CC3)nc2-c2ccc(F)cc2)n1`, the half-maximal inhibitory concentration (IC50) is ≤ 1 µM.

Consider `CC(=O)c1cccc(NCc2onc(-c3ccc(F)cc3)c2-c2nc(C(=O)NC(C)C)cs2)c1`, for which the IC50 was ≤ 1 µM.

Regarding `CC(C)NC(=O)c1csc(-c2oc(CNC3CCN(Cc4ccccc4)C3)nc2-c2ccc(F)cc2)n1` (stereo unspecified), the half-inhibitory concentration (IC50) was ≤ 1 µM.

As to `Cc1onc(-c2ccc(Cl)cc2)c1-c1ccn(C(=O)NC2CCCCC2)n1`, the half-maximal inhibitory concentration (IC50) is ≤ 1 µM.

Consider `CC(C)NC(=O)c1csc(-c2oc(CNC(=O)CCc3nc4ccccc4[nH]3)nc2-c2ccc(F)cc2)n1`, for which the IC50 is ≤ 1 µM.

On to `CC(C)NC(=O)c1csc(-c2c(-c3ccc(F)cc3)n[nH]c2C2CCN(C(=O)C3CCCO3)CC2)n1` (stereo unspecified), for which the concentration for half-maximal inhibition (IC50) is ≤ 1 µM.

Take `CC(C)NC(=O)c1csc(-c2oc(CNC(=O)c3cnc(O)c(Cl)c3)nc2-c2ccc(F)cc2)n1`: the IC50 was ≤ 1 µM.

For the compound `Cc1nc(-c2ccc(F)cc2)c(-c2nc(C(=O)NC3CCCC3)cs2)s1`, the half-maximal inhibitory concentration (IC50) is ≤ 1 µM.

In the case of `COc1ccc(NC(=O)c2csc(-c3sc(C)nc3-c3ccc(F)cc3)n2)c(C)c1`, the IC50 was ≤ 1 µM.

For the compound `COC(=O)N1CCC(c2[nH]nc(-c3ccc(F)cc3)c2-c2nc(C(=O)NC(C)C)cs2)CC1`, the IC50 is ≤ 1 µM.

In the case of `COc1cc(OC)c(C(=O)NCc2nc(-c3ccc(F)cc3)c(-c3nc(C(=O)NC(C)C)cs3)o2)c(OC)c1`, the IC50 was ≤ 1 µM.

As to `CC(C)NC(=O)c1csc(-c2oc(CNC(=O)c3cc4ccccc4s3)nc2-c2ccc(F)cc2)n1`, the 50% inhibitory concentration (IC50) was ≤ 1 µM.

For the compound `COc1ccc(C=CC(=O)N2CCN(Cc3nc(-c4ccc(F)cc4)c(-c4nc(C(=O)NC(C)C)cs4)o3)CC2)cc1O`, the half-inhibitory concentration (IC50) is ≤ 1 µM.

`CC(=O)Oc1cccc(C(=O)N2CCN(Cc3nc(-c4ccc(F)cc4)c(-c4nc(C(=O)NC(C)C)cs4)o3)CC2)c1`: the IC50 is ≤ 1 µM.

As for `Cc1nc(-c2ccc(F)cc2)c(-c2nc(C(=O)NCc3ccncc3)cs2)s1`, the IC50 was ≤ 1 µM.

Turning to `Cc1nc(-c2ccc(F)cc2)c(-c2nc(C(=O)N[C@H](CO)Cc3ccccc3)cs2)s1`, the IC50 was ≤ 1 µM.

Regarding `Cc1onc(-c2ccc(F)cc2Cl)c1-c1ccn(C(=O)NC(C)C)n1`, the IC50 is ≤ 1 µM.

Consider `CC(C)NC(=O)c1csc(-c2c(-c3ccc(F)cc3)noc2CNC(=O)c2ccc([N+](=O)[O-])cc2Cl)n1`, for which the IC50 is ≤ 1 µM.

For the compound `Cc1nc(-c2ccc(F)cc2)c(-c2nc(C(=O)NC(C)C)cs2)[nH]1`, the IC50 is ≤ 1 µM.

For `CNC(=O)c1csc(-c2sc(C)nc2-c2ccc(F)cc2)n1`, the IC50 was ≤ 1 µM.

`Cc1nc(-c2ccc(F)cc2)c(-c2nc(C(=O)NC(C)C)cs2)s1`: the IC50 was ≤ 1 µM.

For `Cc1onc(-c2ccc(Cl)cc2)c1-c1ccn(C(=O)NCCO)n1`, the IC50 is ≤ 1 µM.

On to `CC(C)NC(=O)c1csc(-c2oc(CN3CCNCC3)nc2-c2ccc(F)cc2)n1`, for which the IC50 is ≤ 1 µM.

With `Cc1nc(-c2ccc(F)cc2)c(-c2nc(C(=O)N[C@@H](C)c3ccccc3)cs2)s1`, the IC50 was ≤ 1 µM.

In the case of `COc1ccc(CNC(=O)c2csc(-c3sc(C)nc3-c3ccc(F)cc3)n2)cc1`, the IC50 was ≤ 1 µM.

For `CC(C)NC(=O)c1csc(-c2c(-c3ccc(F)cc3)noc2CNC(=O)c2ccncc2Cl)n1`, the 50% inhibitory concentration (IC50) is ≤ 1 µM.

As for `CC(C)NC(=O)c1csc(-c2oc(CN3CCN(C(=O)c4cc([N+](=O)[O-])ccc4O)CC3)nc2-c2ccc(F)cc2)n1`, the half-maximal inhibitory concentration (IC50) was ≤ 1 µM.

Consider `CC(C)NC(=O)c1csc(-c2oc(CNC(=O)c3cc(O)ccc3O)nc2-c2ccc(F)cc2)n1`, for which the IC50 is ≤ 1 µM.

With `Cc1nc(-c2ccc(F)cc2)c(-c2nc(C(=O)NCCc3ccc4c(c3)OCO4)cs2)s1`, the half-maximal inhibitory concentration (IC50) was ≤ 1 µM.

Turning to `CC(C)NC(=O)c1csc(-c2oc(CN3CCN(C(=O)c4ccc(O)cc4O)CC3)nc2-c2ccc(F)cc2)n1`, the half-maximal inhibitory concentration (IC50) was ≤ 1 µM.

In the case of `CC(C)NC(=O)c1csc(-c2c(-c3ccc(F)cc3)n[nH]c2C2CCN(C(=O)c3ccnc(Cl)c3)CC2)n1`, the IC50 is ≤ 1 µM.

Consider `Cc1nc(-c2ccc(F)cc2)c(-c2nc(C(=O)NCCc3ccccc3F)cs2)s1`, for which the IC50 is ≤ 1 µM.

In the case of `Cc1nc(-c2ccc(F)cc2)c(-c2nc(C(=O)NCc3ccc(C(F)(F)F)cc3)cs2)s1`, the IC50 is ≤ 1 µM.

`CC(C)NC(=O)c1csc(-c2oc(CNC(=O)c3ccc(Cl)nc3)nc2-c2ccc(F)cc2)n1`: the IC50 was ≤ 1 µM.

Turning to `CC(C)NC(=O)c1csc(-c2oc(CN3CCN(C(=O)c4ccc(Cl)cc4O)CC3)nc2-c2ccc(F)cc2)n1`, the half-maximal inhibitory concentration (IC50) was ≤ 1 µM.

With `Cc1nc(-c2ccc(F)cc2)c(-c2nc(C(=O)NCc3ccc(Cl)c(Cl)c3)cs2)s1`, the IC50 was ≤ 1 µM.

Consider `CC(C)NC(=O)c1csc(-c2c(-c3ccc(F)cc3)n[nH]c2C2CCN(C(=O)C(C)(C)C)CC2)n1`, for which the IC50 was ≤ 1 µM.

In the case of `Cc1nc(-c2ccc(F)cc2)c(-c2nc(C(=O)NCCCN(C)c3ccccc3)cs2)s1`, the IC50 was ≤ 1 µM.

For the compound `CC(C)NC(=O)c1csc(-c2oc(CNC(=O)c3cnc[nH]3)nc2-c2ccc(F)cc2)n1`, the half-maximal inhibitory concentration (IC50) is ≤ 1 µM.

Regarding `Cc1nc(-c2ccc(F)cc2)c(-c2nc(C(=O)Nc3c(C)cccc3C(C)(C)C)cs2)s1`, the half-inhibitory concentration (IC50) was ≤ 1 µM.

Consider `Cc1nc(-c2ccc(F)cc2)c(-c2nc(C(=O)NCc3ccccn3)cs2)s1`, for which the 50% inhibitory concentration (IC50) is ≤ 1 µM.

Take `Cc1nc(-c2ccc(F)cc2)c(-c2nc(C(=O)NCc3ccco3)cs2)s1`: the concentration for half-maximal inhibition (IC50) is ≤ 1 µM.

For the compound `O=C(NCc1cccnc1)c1csc(-c2c(-c3ccc(F)cc3)n[nH]c2C2CCNCC2)n1`, the IC50 was ≤ 1 µM.

For the compound `CC(=O)Oc1ccccc1C(=O)NCc1onc(-c2ccc(F)cc2)c1-c1nc(C(=O)NC(C)C)cs1`, the 50% inhibitory concentration (IC50) was ≤ 1 µM.

As to `COCCNC(=O)c1csc(-c2sc(C)nc2-c2ccc(F)cc2)n1`, the IC50 is ≤ 1 µM.

On to `COc1ccccc1CCNC(=O)c1csc(-c2sc(C)nc2-c2ccc(F)cc2)n1`, for which the IC50 was ≤ 1 µM.

For `CCOC(=O)CC1C(=O)NCCN1C(=O)c1csc(-c2sc(C)nc2-c2ccc(F)cc2)n1` (stereo unspecified), the concentration for half-maximal inhibition (IC50) was ≤ 1 µM.

For the compound `CC(C)NC(=O)c1csc(-c2oc(CNC(=O)c3ccccc3C(=O)c3ccc(O)cc3)nc2-c2ccc(F)cc2)n1`, the 50% inhibitory concentration (IC50) was ≤ 1 µM.

In the case of `Cc1onc(-c2ccccc2)c1-c1ccn(C(=O)NC(C)C)n1`, the IC50 was ≤ 1 µM.

With `Cc1nc(-c2ccc(F)cc2)c(-c2nc(C(=O)N3CCCC3CO)cs2)s1` (stereo unspecified), the concentration for half-maximal inhibition (IC50) was ≤ 1 µM.
